This is an account of results in US9493506B2 (Enanta Pharmaceuticals, Inc., priority 2010, dated 2016).

What all share (assay type): cell-based, hepatitis C virus (genotype 1a-H77)
Assay [1] deals with HCV replicon with a D168E mutation in a 1a-H77 background. As to the kind of experiment: transient replicon assay, D168E mutation in 1a-H77 background. As to conditions: Hepatitis C virus, read-out: EC50 in a transient replicon assay with a D168E mutation in a 1a-H77 background. Here is the method:
(§1) Replicon cell lines can be maintained in Dulbecco's modified Eagles medium (DMEM) containing 100 IU/ml penicillin, […] streptomycin (Invitrogen), […] G418 (Invitrogen) and 10% (v/v) fetal bovine serum (FBS). Replicon-containing cells can be seeded into 96 well plates at a density of 5000 cells per well in 100 μl DMEM containing 5% FBS. The next day, the compound can be initially diluted in dimethyl sulfoxide (DMSO) to generate a 200× stock of the inhibitor in a series of 8 half-log dilutions. The dilution series can then be diluted 100-fold in the medium containing 5% FBS. One hundred microliters of medium with the inhibitor can be added to each well of the overnight cell culture plate already containing 100 μl of DMEM with 5% FBS. In assays where the protein binding effect on inhibitor potency is assessed, the medium from the overnight cell culture plates can be replaced with 200 μl DMEM containing 40% human plasma (Innovative Research) plus 5% FBS as well as compound. The cells can be grown for 4 days in tissue culture incubators. The inhibitory effects of compounds against the replicons can be determined by measuring either the level of luciferase or HCV RNA. The luciferase assay can be conducted using a Luciferase Assay System kit (Promega) following the manufacturer's instructions. Briefly, the cell culture medium is removed and wells are washed with 200 μl of phosphate-buffered saline. To each well Passive Lysis buffer (Promega, Wis.) is added and the plates are incubated for 30 min with rocking to lyse the cells. Luciferin solution (50 μl, Promega) is added, and luciferase activity is measured with a Victor II luminometer (Perkin-Elmer). To determine HCV RNA levels, RNA extractions can be performed using the CellsDirect kit (Invitrogen), and the HCV RNA copy number can be measured using the SuperScript III Platinum One-Step qRT-PCR system (Invitrogen) and primers specific to the HCV 5′ nontranslated region. Cytotoxicity can be determined by the 3-[4,5-dimethylhiazol-2-yl]-2,5-diphenyltetrazolium bromide (MTT) colorimetric assay as follows. Replicon cells is plated in 96-well plates (4000 cells per well), the next day compound dilutions are added as in the activity assay, and the cells are grown in the presence of the inhibitors for 4 days. The MTT solution is diluted in DMEM containing 5% FBS and 60 μl of the solution is added to the cells. After 4 hrs, the cells are solubilized by the addition of 30 […]μl SDS (20% in 0.02 N HCl). The plates are incubated overnight and the optical density can be measured at 570 nm. To determine compounds' EC50 and TD50, luciferase, RNA inhibition and MTT data can be analyzed using the GraphPad Prism 4 software (equation: sigmoidal dose-response—variable slope).
(§2) The 1a-H77 replicon for transient assays further differs from the replicon in the stable cell line in that it contains NS2 through NS5B in the second cistron. The 1b-N strain replicon contains NS3 through NS5B in the second cistron, with adaptive mutations E1202G in NS3 and S2204I in NS5A. Mutagenesis can be performed using the Stratagene QuikChange XL II site-directed mutagenesis kit. Mutants' sequences can be confirmed, plasmids can be linearized with Xba I restriction enzyme and used as template for in vitro transcription reactions to make mutant replicon RNA for transient transfections. In vitro transcription can be performed with the T7 Megascript kit (Ambion).
(§3) Transient replicon transfections can be performed essentially as described by Mo et al. (Antimicrob Agents Chemother (2005) 49(10):4305-4314) with slight modifications. Fifteen micrograms of template RNA can be used to electroporate 3×10^6 cells in a 200 μl volume in a 0.2 cm cuvette. The cells used for transient transfections can be Huh7 cells obtained by curing replicon-containing cells with IFN (Mo et al., supra). Electroporation can be done with a Gene Pulser II (Bio-Rad, CA) at 480V and 25 μF, using two manual pulses. […]

Assay [2] has as its system HCV replicon with a R155K mutation in a 1a-H77 background. As to the kind of experiment: transient replicon assay, R155K mutation in 1a-H77 background. As to conditions: Hepatitis C virus, read-out: EC50 in a transient replicon assay with a R155K mutation in a 1a-H77 background. As for the experimental part:
as §1, §2, §3

In assay [3] the test system is HCV replicon with a D168V mutation in a 1a-H77 background. Put plainly: transient replicon assay, D168V mutation in 1a-H77 background. The conditions noted are these: Hepatitis C virus, read-out: EC50 in a transient replicon assay with a D168V mutation in a 1a-H77 background. Here is the method: as §1, §2, §3

For the molecule `Cc1cc(C(=O)N[C@H]2CCCCC/C=C\[C@@H]3C[C@@]3(C(=O)NS(=O)(=O)C3CC3)NC(=O)[C@@H]3C[C@@H](Oc4nc5c(F)cccc5nc4C(F)(F)F)CN3C2=O)no1` [Example 113, N-((2R,6S,13aS,14aR,16aS,Z)-14a-(cyclopropylsulfonylcarbamoyl)-2-(8-fluoro-3-(trifluoromethyl)quinoxalin-2-yloxy)-5,16-dioxo-1,2,3,5,6,7,8,9,10,11,13a,14,14a,15,16,16a-hexadecahydrocyclopropa[e]pyrrolo[1,2-a][1,4]diazacyclopentadecin-6-yl)-5-methylisoxazole-3-carboxamide], the EC50 is less than 3 nM in assay [1], less than 1 nM in assay [2] and less than 25 nM in assay [3].
For the molecule `Cc1onc(C(=O)N[C@H]2CCCCC/C=C\[C@@H]3C[C@@]3(C(=O)NS(=O)(=O)C3(C)CC3)NC(=O)[C@@H]3C[C@@H](Oc4nc5ccccc5nc4C(C)(F)F)CN3C2=O)c1C` [Example 7, N-((2R,6S,13aS,14aR,16aS,Z)-2-(3-(1,1-difluoroethyl)quinoxalin-2-yloxy)-14a-(1-methylcyclopropylsulfonylcarbamoyl)-5,16-dioxo-1,2,3,5,6,7,8,9,10,11,13a,14,14a,15,16,16a-hexadecahydrocyclopropa[e]pyrrolo[1,2-a][1,4]diazacyclopentadecin-6-yl)-4,5-dimethylisoxazole-3-carboxamide], the EC50 was less than 3 nM in assay [1], 1 to 10 nM in assay [2] and 25 to 50 nM in assay [3].
For the molecule `Cc1nc2c(Br)cc(F)cc2nc1O[C@@H]1C[C@H]2C(=O)N[C@]3(C(=O)NS(=O)(=O)C4(C)CC4)C[C@H]3/C=C\CCCCC[C@H](NC(=O)c3ccon3)C(=O)N2C1` [Example 100, N-((2R,6S,13aS,14aR,16aS,Z)-2-(5-bromo-7-fluoro-3-methylquinoxalin-2-yloxy)-14a-(1-methylcyclopropylsulfonylcarbamoyl)-5,16-dioxo-1,2,3,5,6,7,8,9,10,11,13a,14,14a,15,16,16a-hexadecahydrocyclopropa[e]pyrrolo[1,2-a][1,4]diazacyclopentadecin-6-yl)isoxazole-3-carboxamide], the EC50 in assay [1] is 3 to 20 nM; in assay [2], less than 1 nM; in assay [3] it was less than 25 nM.
For `CCc1nc2ccc(F)cc2nc1O[C@@H]1C[C@H]2C(=O)N[C@]3(C(=O)NS(=O)(=O)C4CC4)C[C@H]3/C=C\CCCCC[C@H](NC(=O)OC(C)(C)C)C(=O)N2C1` [Example 121, tert-butyl (2R,6S,13aS,14aR,16aS,Z)-14a-(cyclopropylsulfonylcarbamoyl)-2-(3-ethyl-7-fluoroquinoxalin-2-yloxy)-5,16-dioxo-1,2,3,5,6,7,8,9,10,11,13a,14,14a,15,16,16a-hexadecahydrocyclopropa[e]pyrrolo[1,2-a][1,4]diazacyclopentadecin-6-ylcarbamate], in that order: 3 to 20 nM, 1 to 10 nM and 50 to 250 nM.
For `Cc1nc2cccc(F)c2nc1O[C@@H]1C[C@H]2C(=O)N[C@]3(C(=O)NS(=O)(=O)C4CC4)C[C@H]3/C=C\CCCCC[C@H](NC(=O)c3ccon3)C(=O)N2C1` [Example 55, N-((2R,6S,13aS,14aR,16aS,Z)-14a-(cyclopropylsulfonylcarbamoyl)-2-(8-fluoro-3-methylquinoxalin-2-yloxy)-5,16-dioxo-1,2,3,5,6,7,8,9,10,11,13a,14,14a,15,16,16a-hexadecahydrocyclopropa[e]pyrrolo[1,2-a][1,4]diazacyclopentadecin-6-yl)isoxazole-3-carboxamide], the EC50 in assay [1] lay within 20 to 50 nM; in assay [2], 1 to 10 nM; in assay [3], 50 to 250 nM.
Regarding `CCc1nc2ccc(F)cc2nc1O[C@@H]1C[C@H]2C(=O)N[C@]3(C(=O)NS(=O)(=O)C4CC4)C[C@H]3/C=C\CCCCC[C@H](NC(=O)c3noc(C)c3C)C(=O)N2C1` [Example 123, N-((2R,6S,13aS,14aR,16aS,Z)-14a-(cyclopropylsulfonylcarbamoyl)-2-(3-ethyl-7-fluoroquinoxalin-2-yloxy)-5,16-dioxo-1,2,3,5,6,7,8,9,10,11,13a,14,14a,15,16,16a-hexadecahydrocyclopropa[e]pyrrolo[1,2-a][1,4]diazacyclopentadecin-6-yl)-4,5-dimethylisoxazole-3-carboxamide], the EC50 lay within 3 to 20 nM in assay [1], 1 to 10 nM in assay [2] and 50 to 250 nM in assay [3].
For the molecule `Cn1ccc(C(=O)N[C@H]2CCCCC/C=C\[C@@H]3C[C@@]3(C(=O)NS(=O)(=O)C3CC3)NC(=O)[C@@H]3C[C@@H](Oc4nc5ccccc5nc4C(F)(F)F)CN3C2=O)n1` [Example 12], the values for the EC50 in assay [1], in assay [2] and in assay [3] were 50 to 100 nM, 10 to 25 nM and 250 to 1000 nM, respectively.
On the same counts, the results for `Cc1onc(C(=O)N[C@H]2CCCCC/C=C\[C@@H]3C[C@@]3(C(=O)NS(=O)(=O)C3(C)CC3)NC(=O)[C@@H]3C[C@@H](Oc4nc5cc(F)ccc5nc4C(C)(F)F)CN3C2=O)c1C` [Example 120, N-((2R,6S,13aS,14aR,16aS,Z)-2-(3-(1,1-difluoroethyl)-7-fluoroquinoxalin-2-yloxy)-14a-(1-methylcyclopropylsulfonylcarbamoyl)-5,16-dioxo-1,2,3,5,6,7,8,9,10,11,13a,14,14a,15,16,16a-hexadecahydrocyclopropa[e]pyrrolo[1,2-a][1,4]diazacyclopentadecin-6-yl)-4,5-methylisoxazole-3-carboxamide] are less than 3 nM, less than 1 nM and less than 25 nM.
Turning to `CCc1nc2ccc(F)cc2nc1O[C@@H]1C[C@H]2C(=O)N[C@]3(C(=O)NS(=O)(=O)C4(C)CC4)C[C@H]3/C=C\CCCCC[C@H](NC(=O)c3cc(C4CC4)on3)C(=O)N2C1` [Example 151, 5-cyclopropyl-N-((2R,6S,13aS,14aR,16aS,Z)-2-(3-ethyl-7-fluoroquinoxalin-2-yloxy)-14a-(1-methylcyclopropylsulfonylcarbamoyl)-5,16-dioxo-1,2,3,5,6,7,8,9,10,11,13a,14,14a,15,16,16a-hexadecahydrocyclopropa[e]pyrrolo[1,2-a][1,4]diazacyclopentadecin-6-yl)isoxazole-3-carboxamide], the EC50 in assay [1] is 3 to 20 nM; in assay [2] it was 1 to 10 nM; in assay [3], less than 25 nM.
As for `Cc1nc2ccc(F)cc2nc1O[C@@H]1C[C@H]2C(=O)N[C@]3(C(=O)NS(=O)(=O)C4(C)CC4)C[C@H]3/C=C\CCCCC[C@H](NC(=O)c3noc(C)c3C)C(=O)N2C1` [Example 24, N-((2R,6S,13aS,14aR,16aS,Z)-2-(7-fluoro-3-methylquinoxalin-2-yloxy)-14a-(1-methylcyclopropylsulfonylcarbamoyl)-5,16-dioxo-1,2,3,5,6,7,8,9,10,11,13a,14,14a,15,16,16a-hexadecahydrocyclopropa[e]pyrrolo[1,2-a][1,4]diazacyclopentadecin-6-yl)-4,5-dimethylisoxazole-3-carboxamide], the results for the EC50 in assay [1], in assay [2] and in assay [3] were less than 3 nM, less than 1 nM and less than 25 nM, respectively.
